Measured values reported in US10502741B2, “Means and methods for detecting activated MALT1” (Helmholtz Zentrum München Deutsches Forschungszentrum für …, priority 2014, dated 2019).
One block for each compound: values may come before it. Primed or numbered codes have the meaning given here. The star is where a group is joined. FITC = O=C1OC2(c3ccc(O)cc3Oc3cc(O)ccc32)c2ccc(NC(=S)*)cc21; AOMK = acyloxymethyl ketone C-terminal warhead; AOMK″ = acyloxymethyl ketone; BODIPY = not defined here

Experiments:
active MALT1 [1] = target: T1, active MALT1 (Homo sapiens, UniProt Q9UDY8); assay: Labeling with diagnostic inhibitor in cell extracts (gel-based, fluorescence scan): active MALT1 band; conditions: for selectivity / background of probe labeling in extracts: Jurkat T cell extracts; for detection of endogenous active MALT1-probe complexes: Jurkat T cells stimulated or not, whole cell lysates; for effect of inhibitor pretreatment on probe 5 labeling of active MALT1: Jurkat T cells, 10 μM inhibitor before stimulation
T1 construct: endogenous in cells; host or cells: Jurkat T cells, primary human PBMCs and T cells, DLBCL cell lines (HBL1, TMD8, OCI-Ly3, OCI-Ly10, U2932, RIVA, BJAB, Su-DHL-4, Su-DHL-6)
T1 sequence (Q9UDY8 1-824): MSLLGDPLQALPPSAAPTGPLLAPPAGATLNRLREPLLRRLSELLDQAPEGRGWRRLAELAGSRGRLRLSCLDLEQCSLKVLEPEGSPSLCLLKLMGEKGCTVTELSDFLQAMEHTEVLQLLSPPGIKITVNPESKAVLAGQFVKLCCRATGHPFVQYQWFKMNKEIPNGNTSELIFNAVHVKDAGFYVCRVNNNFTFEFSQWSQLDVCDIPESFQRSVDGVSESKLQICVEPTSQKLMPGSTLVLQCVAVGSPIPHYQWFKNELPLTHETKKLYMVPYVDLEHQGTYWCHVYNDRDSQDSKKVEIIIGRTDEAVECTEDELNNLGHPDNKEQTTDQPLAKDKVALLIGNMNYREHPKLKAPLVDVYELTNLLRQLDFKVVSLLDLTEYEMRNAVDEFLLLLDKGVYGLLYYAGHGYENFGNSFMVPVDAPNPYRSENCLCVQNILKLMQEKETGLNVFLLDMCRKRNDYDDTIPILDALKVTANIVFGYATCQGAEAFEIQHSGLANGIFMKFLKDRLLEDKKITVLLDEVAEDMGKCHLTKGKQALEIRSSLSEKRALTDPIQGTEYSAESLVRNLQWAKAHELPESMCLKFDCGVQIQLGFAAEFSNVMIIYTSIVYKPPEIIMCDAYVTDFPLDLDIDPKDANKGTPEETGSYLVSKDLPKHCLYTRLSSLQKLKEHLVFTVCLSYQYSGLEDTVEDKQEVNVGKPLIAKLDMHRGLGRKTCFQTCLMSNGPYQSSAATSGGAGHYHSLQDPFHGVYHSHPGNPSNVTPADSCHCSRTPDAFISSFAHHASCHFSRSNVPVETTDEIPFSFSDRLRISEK
Method: (§1) Jurkat T cells were cultured in standard RPMI medium containing 10% FCS, 100 U/ml Penicillin/Streptomycin and 2 mM Glutamin. DNA transfection of 6 μg DNA in 8×10^6 Jurkat T cells was performed by electroporation in a GenePulser Xcell (BioRad) with a 220 Volt pulse. For siRNA experiments, Jurkat T cells were transfected with 100 nM siRNA and Atufect transfection reagent (Silence Therapeutics, Berlin). Jurkat T cells were stimulated either with 200 ng/ml PMA (phorbol 12-myristate 13-acetate) and 300 ng/ml Ionomycin (both Calbiochem) or CD3/CD28 antibody co-ligation (human CD3: 1 μg/ml; human CD28: 4 μg/ml; mouse IgG1: 2 μg/ml; mouse IgG2a: 2 μg/ml; BD Biosciences). DLBCL cell lines (HBL1, TMD8, OCI-Ly3, U2932, RIVA, BJAB, Su-DHL-4 and Su-DHL-6) were cultured in standard RPMI medium containing 20% FCS, 100 U/ml Penicillin/Streptomycin and 2 mM Glutamin. OCI-Ly10 cell line was cultured in IMDM containing 20% human serum, 100 U/ml Penicillin/Streptomycin, 2 U/ml heparine, 50 μM β-mercaptoethanol. Inhibitors 10 μM (z-VRPR-FMK, Mepazine, Thioridazine, CA-074Me) were added to the cells in media for 1 h, prior to stimulation and labeling with diagnostic MALT1 inhibitor.
(§2) Jurkat T cells (1-2×10^7), primary human PBMCs or primary human T cells (0.25 or 1×10^7) were lysed in 150 μl co-IP buffer without protease inhibitors. DLBCL (3×10^7) were lysed in 250 μl buffer. After centrifugation (14000 rpm, 10 min, 4° C.), 100 μl extract (DLBCL: 200 μl) was stained with probe 5 or probe 6 (3 μM end) for 50 min at 29° C., mixed with 4× loading dye and boiled.

cathepsin B [2] = target: T2, cathepsin B (Homo sapiens, UniProt P07858); assay: Cathepsin B cleavage assay (zRR-AMC substrate); type: biochemical; set-up: purchased BioVision; conditions: 0.2 ng cathepsin B, 1 mM zRR-AMC, 2 h at 30° C.
Method: (§3) C) Impact of indicated compounds on MALT1, Caspase8 and cathepsin B was tested in in vitro cleavage assays using fluorescent substrates. Results and SD from three independent experiments are shown.
0.2 ng cathepsin B together with probe 5, z-VRPR-FMK (SEQ ID No. 6), mepazine or CA-074 was incubated with 1 mM zRR-AMC substrate for 2 h at 30° C. Assay was performed in 0.1 M sodium acetate pH 5.5, 10 mM DTT and 0.1 mM EDTA. Again, increase of AMC fluorescence is measured in a Synergy 2 Microplate Reader (Biotek).

cathepsin B [3] = target: T2, cathepsin B; assay: Labeling with diagnostic inhibitor in cell extracts (gel-based, fluorescence scan): about 30 kDa cathepsin B band; set-up: endogenous in cells; host or cells: Jurkat T cells; HBL1 and other DLBCL cell lines; conditions: for effect of inhibitor pretreatment on the band below 34 kDa (cathepsin B) labeled by probe 5: Jurkat T cells, 10 μM inhibitor
Method: as §1, §2

active MALT1 [4] = target: T1, active MALT1; assay: ELISA-based assay (MALT1 ELASA) on streptavidin-coated plates with MALT1 antibody detection; type: cell-based; conditions: for effect of inhibitor on active MALT1 signal in DLBCL cells: inhibitor-treated (10 μM) DLBCL cells
Method: as §1
Untreated DLBCL (1×10^7), primary T cells (0.25×10^7) or Jurkat T cells (0.2-1×10^7) (stimulated or not) were lysed in 300 μl co-IP buffer without protease inhibitors, centrifuged, incubated with probe 7 (concentration as depicted) for 1 h at RT, then transferred to streptavidin-coated plates (96 well, clear) and incubated o/n at 4° C. After blocking with 2% BSA in PBS-T, detection was performed by incubation with MALT1 primary antibody (1 h, RT) and HRP-coupled secondary antibody (1 h, RT). […] was determined after TMB substrate incubation in a photometer (Bio-Tek).

active MALT1 [5] = target: T1, active MALT1; assay: Probe 7-pulldown with streptavidin beads and western blot; type: cell-based
Method: as §1
Untreated DLBCL (1-2×10^7) or Jurkat T cells (stimulated with PMA/Ionomycin or CD3/28 or left untreated; 1-2×10^7), were lysed in 500 μl co-IP buffer without protease inhibitors, centrifuged, incubated with probe 7 (concentration as depicted) for 1 h at RT then incubated with streptavidin beads for 2 h at 4° C. Precipitate was washed, analysed by SDS-PAGE and western blot.

MALT1 = target: T3, MALT1 (Homo sapiens, UniProt Q9UDY8); assay: MALT1 in vitro cleavage assay using fluorescent substrate; type: biochemical
T3 construct: GST
T3 sequence (Q9UDY8 1-824): T1 sequence (Q9UDY8 1-824)
Method: as §3
Preferably, MALT1 activity is determined in a MALT1 cleavage assay. […] The assay may be performed in cleavage buffer comprising for example 50 mM MES, 1 M sodium citrate pH 7, 150 mM NaCl, 10% sucrose, 0.1% chaps, 10 mM DTT. Catalytically active MALT1 cleaves the substrate and an increase of AMC fluorescence can be measured.

[6] = HBL1 cells, inhibitors 10 μM each

Compound: BODIPY-ALVSR-AOMK ({BODIPY}-ALVSR-{AOMK″}; reading uncertain)
selectivity / background of probe labeling in extracts (active MALT1 [1]): unspecific background labeling of unknown identity at approx. 40 kDa
detection of endogenous active MALT1-probe complexes (active MALT1 [1]): exclusively detected after stimulation
effect of titrating probe concentration on labeling (active MALT1 [1]; extracts of stimulated Jurkat T cells): decrease background labeling, while active MALT1 activity stays stable

Compound: CCCNC(=O)[C@H]1O[C@@H]1C(=O)N[C@H](C(=O)N1CCC[C@H]1C(=O)O)[C@@H](C)CC [CA-074]
inhibition of MALT1 protease activity in vitro (MALT1): neither the non-competitive MALT1 inhibitor mepazine, nor the irreversible cathepsin B specific inhibitor CA-074 showed any cross-inhibition

Compound: C=CC(=O)N1CCC[C@@H](n2nc(-c3ccc(Oc4ccccc4)cc3)c3c(N)ncnc32)C1 [Ibrutinib]
reduction of MALT1 activity (active MALT1 [4]; 0.5 nM, ABC DLBCL cells): 50-60%

Compound: Ac-Lys(biotin)-LRSR-AOMK [probe 7]
probe concentration sufficient to obtain a robust increase in active MALT1 (active MALT1 [4]; 2×10^6 Jurkat T cells stimulated or not): ≤ 10 nM
MALT1 activity in ABC versus GCB DLBCL cells, ELISA (active MALT1 [4]; DLBCL cell lines, probe 7): significant increase in MALT1 activity in ABC DLBCL cells when compared to GCB DLBCL cells
MALT1 binding to streptavidin-coated plates (active MALT1 [4]; Jurkat T cells, stimulated or not): only detected in P/I or CD3/CD28 stimulated Jurkat T cells
active MALT1 in stimulated primary T cells, ELISA (active MALT1 [4]; primary human T cells, 0.1 μM probe 7): robust induction of active MALT1
detection of MALT1-probe 7 complexes after pulldown (active MALT1 [5]; Jurkat T cells, P/I stimulated or not): exclusively detected in extracts of P/I stimulated Jurkat T cells
probe concentration sufficient to completely remove active MALT1 from the extracts (active MALT1 [5]; extracts of stimulated T cells, supernatant checked with probe 6): 100 nM
constitutively active MALT1 after pulldown in DLBCL cells (active MALT1 [5]; untreated ABC and GCB DLBCL cells, western blot): exclusively in ABC, but not in GCB DLBCL cells

Compound: CCCNC(=O)[C@H]1O[C@@H]1C(=O)N[C@H](C(=O)N1CCC[C@H]1C(=O)OC)[C@@H](C)CC [CA-074Me]
effect of inhibitor on the about 30 kDa cathepsin B signal labeled by probe 6 (cathepsin B [3]; [6]): sensitive
effect of inhibitor pretreatment on the band below 34 kDa (cathepsin B) labeled by probe 5 (cathepsin B [3]): completely abolished detection
effect of inhibitor on active MALT1 signal in DLBCL cells (active MALT1 [4]; probe 7): resistant
effect of inhibitor pretreatment on probe 5 labeling of active MALT1 (active MALT1 [1]): inducible MALT1 labeling was unaffected

More lines, main results first:

effect of inhibitor pretreatment on the band below 34 kDa (cathepsin B) labeled by probe 5 (cathepsin B [3]): unaffected
effect of inhibitor on active MALT1 signal in DLBCL cells (active MALT1 [4]; probe 7): strongly reduced
effect of inhibitor on formation of MALT1-probe 7 complexes (active MALT1 [5]; Jurkat T cells pretreated with 10 μM inhibitors, 0.1 μM probe 7): blocked
effect of inhibitor on probe 6 labeling of active MALT1 (active MALT1 [1]; [6]): sensitivity
Compound: CN1CCCC(CN2c3ccccc3Sc3ccccc32)C1 (centres unmarked) [mepazine, 10-[(1-methylpiperidin-3-yl)methyl]-10H-phenothiazine]
inhibition of cathepsin B activity in vitro (cathepsin B [2]): neither the non-competitive MALT1 inhibitor mepazine, nor the irreversible cathepsin B specific inhibitor CA-074 showed any cross-inhibition
effect of inhibitor pretreatment on probe 5 labeling of active MALT1 (active MALT1 [1]): prevents binding of diagnostic MALT1-inhibitor

cellular MALT1 inhibition, inhibitor profiling (active MALT1 [4]; ABC DLBCL cell line OCI-Ly3, increasing concentrations): slightly more potent
concentrations at which MALT1 was inhibited (active MALT1 [4]; all ABC DLBCL cell lines): 0.3 to 10 µM
Compound: CN1CCC[C@H](CN2c3ccccc3Sc3ccccc32)C1 [S-mepazine, 10-{[(3S)-1-methylpiperidin-3-yl]methyl}-10H-phenothiazine]

effect of inhibitor pretreatment on the band below 34 kDa (cathepsin B) labeled by probe 5 (cathepsin B [3]): unaffected
Compound: CSc1ccc2c(c1)N(CCC1CCCCN1C)c1ccccc1S2 (centres unmarked) [thioridazine, 10-[2-(1-methylpiperidin-2-yl)ethyl]-2-(methylthio)phenothiazine]
effect of inhibitor pretreatment on probe 5 labeling of active MALT1 (active MALT1 [1]): prevents binding of diagnostic MALT1-inhibitor

inhibition of MALT1 protease activity in vitro (MALT1): inhibit MALT1
active MALT1 signal in lymphoma whole cell extracts (active MALT1 [1]; ABC DLBCL cells (HBL1 for probe 6)): not detectable
selectivity / background of probe labeling in extracts (active MALT1 [1]): MALT1 was the only inducible band
detection of active MALT1 in primary cells (active MALT1 [1]; extracts of P/I-stimulated PBMCs and human T cells): detected active MALT1
Compound: FITC-LRSR-AOMK ({FITC}-LRSR-{AOMK}) [probe 5]
inhibition of cathepsin B activity in vitro (cathepsin B [2]): abrogated cathepsin B activity even though slightly less efficient
detection of endogenous active MALT1-probe complexes (active MALT1 [1]): exclusively detected after T cell stimulation
